Tests used:
PERK = PERK (Homo sapiens (Human), UniProt Q9NZJ5); assay: PERK cellular assay (TR-FRET, HEK293-EGFP-eIF2α cells, tunicamycin-induced ER stress); format: cell-based; conditions: tunicamycin 2 hours, read-out: Cellular IC50 (μM) (EIF2a)
Summary of the method: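 After 2 h tunicamycin ([…]) stress following 30 min compound pretreatment at 37 °C, lysed HEK293-EGFP-eIF2α cells were read by TR-FRET. IC50 derived by 4-parameter logistic fitting of percent inhibition, DMSO-normalized, from 10-point 3-fold dilutions.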

[1] = biological target: EIF2AK3 (PERK) catalytic domain (amino acids 536-1116) (Homo sapiens (Human), UniProt Q9NZJ5); assay: PERK in vitro activity assay (isolated), TR-FRET kinase assay; conditions: isolated PERK enzyme, 1.5 μM ATP, GFP-eIF2a substrate; read-out: Biochemical IC50
Summary of the method: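 Human PERK catalytic domain (aa 536-1116) with 100-200 nM GFP-eIF2a in 50 mM HEPES pH 7.5, 10 mM MgCl2, 1.0 mM EGTA, 0.01% Brij-35; enzyme-started reaction run 45 min at room temperature. Stopped with 10 mM EDTA, 2 nM Tb-anti-phospho-eIF2a added for 90 min; IC50 from TR-FRET ratio by 4-parameter logistic fit.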

Chain of EIF2AK3 (PERK) catalytic domain (amino acids 536-1116) (Q9NZJ5 536-1116): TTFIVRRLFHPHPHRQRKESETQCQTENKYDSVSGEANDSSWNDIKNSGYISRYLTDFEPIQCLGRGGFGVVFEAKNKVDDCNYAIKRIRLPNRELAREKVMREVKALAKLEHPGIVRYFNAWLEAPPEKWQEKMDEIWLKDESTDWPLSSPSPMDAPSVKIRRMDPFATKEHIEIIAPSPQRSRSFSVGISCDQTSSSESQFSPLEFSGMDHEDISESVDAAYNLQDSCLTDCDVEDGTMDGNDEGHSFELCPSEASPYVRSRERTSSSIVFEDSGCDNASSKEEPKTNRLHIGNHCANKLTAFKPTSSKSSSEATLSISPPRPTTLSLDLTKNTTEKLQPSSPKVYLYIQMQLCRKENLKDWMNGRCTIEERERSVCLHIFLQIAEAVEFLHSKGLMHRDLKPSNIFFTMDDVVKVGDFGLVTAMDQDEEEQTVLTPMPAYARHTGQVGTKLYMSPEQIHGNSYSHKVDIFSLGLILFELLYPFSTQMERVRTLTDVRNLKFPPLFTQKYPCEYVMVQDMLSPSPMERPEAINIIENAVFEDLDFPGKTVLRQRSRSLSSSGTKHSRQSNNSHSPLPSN
Chain of PERK (Q9NZJ5 30-1116): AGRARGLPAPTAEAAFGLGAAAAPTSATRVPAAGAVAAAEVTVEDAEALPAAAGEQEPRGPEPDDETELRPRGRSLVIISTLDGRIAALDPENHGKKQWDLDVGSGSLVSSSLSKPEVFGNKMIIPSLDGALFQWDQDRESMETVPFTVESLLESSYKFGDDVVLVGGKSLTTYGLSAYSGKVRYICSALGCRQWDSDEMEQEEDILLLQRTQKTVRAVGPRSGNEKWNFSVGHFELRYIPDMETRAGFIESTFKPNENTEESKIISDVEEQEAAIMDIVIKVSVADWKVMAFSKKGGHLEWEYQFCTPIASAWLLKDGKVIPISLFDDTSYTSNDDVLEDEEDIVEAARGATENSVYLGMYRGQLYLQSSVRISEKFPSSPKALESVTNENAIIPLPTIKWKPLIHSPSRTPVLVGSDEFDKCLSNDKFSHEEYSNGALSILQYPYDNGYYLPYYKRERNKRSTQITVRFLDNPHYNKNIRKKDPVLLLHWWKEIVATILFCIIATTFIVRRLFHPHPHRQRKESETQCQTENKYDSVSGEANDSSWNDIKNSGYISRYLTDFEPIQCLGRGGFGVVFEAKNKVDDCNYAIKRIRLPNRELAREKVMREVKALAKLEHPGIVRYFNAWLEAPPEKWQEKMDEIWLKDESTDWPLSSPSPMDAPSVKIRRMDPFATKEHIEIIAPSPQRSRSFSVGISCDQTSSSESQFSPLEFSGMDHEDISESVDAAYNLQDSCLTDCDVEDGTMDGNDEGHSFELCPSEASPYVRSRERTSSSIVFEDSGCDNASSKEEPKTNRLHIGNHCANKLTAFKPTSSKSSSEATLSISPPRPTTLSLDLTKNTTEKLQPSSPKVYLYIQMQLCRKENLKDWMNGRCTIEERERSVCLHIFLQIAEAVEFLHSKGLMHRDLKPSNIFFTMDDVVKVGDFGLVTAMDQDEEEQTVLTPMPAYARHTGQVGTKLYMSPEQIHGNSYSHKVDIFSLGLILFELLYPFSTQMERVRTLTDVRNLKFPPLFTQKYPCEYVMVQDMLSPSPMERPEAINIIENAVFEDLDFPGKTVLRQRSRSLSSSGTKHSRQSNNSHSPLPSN

Row | Compound | IC50 (PERK) [µM] | IC50 [1] [nM]
1 | Cc1nc(C(O)C(=O)Nc2ccc(-c3cnc(N)c(C(=O)NC(C)C)c3)c(C)c2)cs1 (stereo not drawn) [Example 79, 2-amino-5-(4-(2-hydroxy-2-(2-methylthiazol-4-yl)acetamido)-2-methylphenyl)-N-isopropylnicotinamide] | > 5 | 1000 to 2000
2 | Nc1ncc(-c2ccc(NC(=O)C(O)c3cc(F)cc(F)c3)cc2Cl)cc1C(=O)NC1CC1 (stereo not drawn) [Example 85, 2-amino-5-(2-chloro-4-(2-(3,5-difluorophenyl)-2-hydroxyacetamido)phenyl)-N-cyclo-propylnicotinamide] | 0.051 to 0.1 | 1 to 25
3 | Nc1ncc(-c2ccc(NC(=O)C(O)c3cc(F)cc(F)c3)cc2Cl)cc1C(=O)NCC(F)(F)F (stereo not drawn) [Example 86, 2-amino-5-(2-chloro-4-(2-(3,5-difluorophenyl)-2-hydroxyacetamido)phenyl)-N-(2,2,2-trifluoroethyl) nicotinamide] | 0.001 to 0.025 | 1 to 25
4 | CCc1cccc(C(O)C(=O)Nc2ccc(-c3cnc(N)c(C(=O)NC(C)C)c3)c(Cl)c2)c1 (stereo not drawn) [Example 94, 2-amino-5-(2-chloro-4-(2-(3-ethylphenyl)-2-hydroxyacetamido)phenyl)-N-isopropylnicotinamide] | 0.001 to 0.025 | 1 to 25
5 | CCc1cccc(C(O)C(=O)Nc2ccc(-c3cnc(N)c(C(=O)NC(C)C)c3)c(Cl)c2)c1 (stereo not drawn) [Example 95, 2-amino-5-(2-chloro-4-(2-(3-ethylphenyl)-2-hydroxyacetamido)phenyl)-N-isopropylnicotinamide] | 0.101 to 0.25 | 26 to 50
6 | CCNC(=O)c1cc(-c2ccc(NC(=O)C(O)c3cc(F)cc(F)c3)cc2CC)cnc1N (stereo not drawn) [Example 98, 2-amino-5-(4-(2-(3,5-difluorophenyl)-2-hydroxyacetamido)-2-ethylphenyl)-N-ethylnicotinamide] | 0.001 to 0.025 | 1 to 25
7 | CCNC(=O)c1cc(-c2ccc(NC(=O)C(O)c3cc(F)cc(F)c3)cc2CC)cnc1N (stereo not drawn) [Example 99, 2-amino-5-(4-(2-(3,5-difluorophenyl)-2-hydroxyacetamido)-2-ethylphenyl)-N-ethylnicotinamide] | 0.101 to 0.25 | 26 to 50
8 | CCc1cc(NC(=O)C(O)c2cc(F)cc(F)c2)ccc1-c1cnc(N)c(C(=O)NCC(F)(F)F)c1 (stereo not drawn) [Example 101, 2-amino-5-(4-(2-(3,5-difluorophenyl)-2-hydroxyacetamido)-2-ethylphenyl)-N-(2,2,2-trifluoroethyl) nicotinamide] | 0.051 to 0.1 | 1 to 25
9 | CCc1cc(NC(=O)C(O)c2cc(F)cc(F)c2)ccc1-c1cnc(N)c(C(=O)NC2CC2)c1 (stereo not drawn) [Example 102, 2-amino-N-cyclopropyl-5-(4-(2-(3,5-difluorophenyl)-2-hydroxyacetamido)-2-ethylphenyl) nicotinamide] | 0.001 to 0.025 | 1 to 25
10 | CCc1cccc(C(O)C(=O)Nc2ccc(-c3cnc(N)c(C(=O)NC(C)C)c3)c(CC)c2)c1 (stereo not drawn) [Example 106, 2-amino-5-(2-ethyl-4-(2-(3-ethylphenyl)-2-hydroxyacetamido)phenyl)-N-isopropylnicotinamide] | 0.001 to 0.025 | 1 to 25
11 | CCc1cccc(C(O)C(=O)Nc2ccc(-c3cnc(N)c(C(=O)NC(C)C)c3)c(CC)c2)c1 (stereo not drawn) [Example 107, 2-amino-5-(2-ethyl-4-(2-(3-ethylphenyl)-2-hydroxyacetamido)phenyl)-N-isopropylnicotinamide] | 0.251 to 0.5 | 51 to 100
12 | CC(C)NC(=O)c1cc(-c2ccc(NC(=O)C(O)c3cc(F)cc(F)c3)cc2OC(F)(F)F)cnc1N (stereo not drawn) [Example 113, 2-amino-5-(4-(2-(3,5-difluorophenyl)-2-hydroxyacetamido)-2-(trifluoromethoxy)phenyl)-N-isopropylnicotinamide] | 0.501 to 1 | 51 to 100
13 | CC(C)NC(=O)c1cc(-c2ccc(NC(=O)C(O)c3cc(F)cc(F)c3)cc2OC(F)(F)F)cnc1N (stereo not drawn) [Example 114, 2-amino-5-(4-(2-(3,5-difluorophenyl)-2-hydroxyacetamido)-2-(trifluoromethoxy)phenyl)-N-isopropylnicotinamide] | > 5 | 251 to 500
14 | Cc1c(-c2cnc(N)c(C(=O)NC(C)C)c2)ccc(NC(=O)C(O)c2cc(F)cc(F)c2)c1F (stereo not drawn) [Example 115, 2-amino-5-(4-(2-(3,5-difluorophenyl)-2-hydroxyacetamido)-3-fluoro-2-methylphenyl)-N-isopropylnicotinamide] | 0.001 to 0.025 | 1 to 25
15 | CCNC(=O)c1cc(-c2ccc(NC(=O)C(O)c3cc(F)cc(F)c3)c(F)c2C)cnc1N (stereo not drawn) [Example 117, 2-amino-5-(4-(2-(3,5-difluorophenyl)-2-hydroxyacetamido)-3-fluoro-2-methylphenyl)-N-ethylnicotinamide] | 0.001 to 0.025 | 1 to 25

More lines, now with the values ahead:

Row | IC50 (PERK) [µM] | IC50 [1] [nM] | Compound
16 | 3 to 4 | 251 to 500 | Cc1cc(NC(=O)C(O)c2cccc3cnn(C)c23)ccc1-c1cnc(N)c(C(=O)NC(C)C)c1 (stereo not drawn) [Example 76, 2-amino-5-(4-(2-hydroxy-2-(1-methyl-1H-indazol-7-yl)acetamido)-2-methylphenyl)-N-isopropylnicotinamide]
17 | 3 to 4 | 501 to 1000 | Cc1cc(NC(=O)C(O)c2cccc3cnn(C)c23)ccc1-c1cnc(N)c(C(=O)NC(C)C)c1 (stereo not drawn) [Example 77, 2-amino-5-(4-(2-hydroxy-2-(1-methyl-1H-indazol-7-yl)acetamido)-2-methylphenyl)-N-isopropylnicotinamide]
18 | > 5 | 1000 to 2000 | Cc1nc(C(O)C(=O)Nc2ccc(-c3cnc(N)c(C(=O)NC(C)C)c3)c(C)c2)cs1 (stereo not drawn) [Example 78, 2-amino-5-(4-(2-hydroxy-2-(2-methylthiazol-4-yl)acetamido)-2-methylphenyl)-N-isopropylnicotinamide]
19 | 0.251 to 0.5 | 1 to 25 | CC(C)NC(=O)c1cc(-c2ccc(NC(=O)C(O)c3cc(F)cc(F)c3)cc2)cnc1N (stereo not drawn) [Example 80, 2-amino-5-(4-(2-(3,5-difluorophenyl)-2-hydroxyacetamido)phenyl)-N-isopropylnicotinamide]
20 | 4 to 5 | 101 to 250 | CC(C)NC(=O)c1cc(-c2ccc(NC(=O)C(O)c3cc(F)cc(F)c3)cc2)cnc1N (stereo not drawn) [Example 81, 2-amino-5-(4-(2-(3,5-difluorophenyl)-2-hydroxyacetamido)phenyl)-N-isopropylnicotinamide]
21 | 0.026 to 0.05 | 1 to 25 | CCNC(=O)c1cc(-c2ccc(NC(=O)C(O)c3cc(F)cc(F)c3)cc2Cl)cnc1N (stereo not drawn) [Example 82, 2-amino-5-(2-chloro-4-(2-(3,5-difluorophenyl)-2-hydroxyacetamido)phenyl)-N-ethylnicotinamide]
22 | 0.251 to 0.5 | 1 to 25 | CCNC(=O)c1cc(-c2ccc(NC(=O)C(O)c3cc(F)cc(F)c3)cc2Cl)cnc1N (stereo not drawn) [Example 83, 2-amino-5-(2-chloro-4-(2-(3,5-difluorophenyl)-2-hydroxyacetamido)phenyl)-N-ethylnicotinamide]
23 | 0.001 to 0.025 | 1 to 25 | Nc1ncc(-c2ccc(NC(=O)C(O)c3cc(F)cc(F)c3)cc2Cl)cc1C(=O)NC1CC1 (stereo not drawn) [Example 84, 2-amino-5-(2-chloro-4-(2-(3,5-difluorophenyl)-2-hydroxyacetamido)phenyl)-N-cyclopropyl-nicotinamide]
24 | 0.101 to 0.25 | 26 to 50 | Nc1ncc(-c2ccc(NC(=O)C(O)c3cc(F)cc(F)c3)cc2Cl)cc1C(=O)NCC(F)(F)F (stereo not drawn) [Example 87, 2-amino-5-(2-chloro-4-(2-(3,5-difluorophenyl)-2-hydroxyacetamido)phenyl)-N-(2,2,2-trifluoroethyl) nicotinamide]
25 | 0.001 to 0.025 | 1 to 25 | CCc1cc(NC(=O)C(O)c2cc(F)cc(F)c2)ccc1-c1cnc(N)c(C(=O)NCC(F)(F)F)c1 (stereo not drawn) [Example 100, 2-amino-5-(4-(2-(3,5-difluorophenyl)-2-hydroxyacetamido)-2-ethylphenyl)-N-(2,2,2-trifluoroethyl) nicotinamide]
26 | 0.101 to 0.25 | 26 to 50 | CCc1cc(NC(=O)C(O)c2cc(F)cc(F)c2)ccc1-c1cnc(N)c(C(=O)NC2CC2)c1 (stereo not drawn) [Example 103, 2-amino-N-cyclopropyl-5-(4-(2-(3,5-difluorophenyl)-2-hydroxyacetamido)-2-ethylphenyl) nicotinamide]
27 | 0.001 to 0.025 | 1 to 25 | CCc1cc(NC(=O)C(O)c2cccc(C(F)(F)F)c2)ccc1-c1cnc(N)c(C(=O)NC(C)C)c1 (stereo not drawn) [Example 110, 2-amino-5-(2-ethyl-4-(2-hydroxy-2-(3-(trifluoromethyl)phenyl)acetamido)phenyl)-N-isopropylnicotinamide]
28 | 0.101 to 0.25 | 101 to 250 | CCc1cc(NC(=O)C(O)c2cccc(C(F)(F)F)c2)ccc1-c1cnc(N)c(C(=O)NC(C)C)c1 (stereo not drawn) [Example 111, 2-amino-5-(2-ethyl-4-(2-hydroxy-2-(3-(trifluoromethyl)phenyl)acetamido)phenyl)-N-isopropylnicotinamide]
29 | 0.251 to 0.5 | 51 to 100 | COc1cc(NC(=O)C(O)c2cc(F)cc(F)c2)ccc1-c1cnc(N)c(C(=O)NC(C)C)c1 (stereo not drawn) [Example 112, 2-amino-5-(4-(2-(3,5-difluorophenyl)-2-hydroxyacetamido)-2-methoxyphenyl)-N-isopropylnicotinamide]
30 | 1 to 2 | 251 to 500 | Cc1c(-c2cnc(N)c(C(=O)NC(C)C)c2)ccc(NC(=O)C(O)c2cc(F)cc(F)c2)c1F (stereo not drawn) [Example 116, 2-amino-5-(4-(2-(3,5-difluorophenyl)-2-hydroxyacetamido)-3-fluoro-2-methylphenyl)-N-isopropylnicotinamide]

— patent US12473296B2, “Perk inhibiting compounds” (HiberCell, Inc., priority 2019, dated 2025)
